Data as given in patent US20070202054A1, “Inhalant Formulation Containing Sulfoalkyl Ether Cyclodextrin and Corticosteroid” (priority 2003, published 2007).

Experiments:
[1] = human, in vivo; cited from earlier work
[2] = format: physicochemical
Method: The phase solubility binding curve for Salmeterol xinafoate and budesonide was determined as described herein, and the approximate equilibrium binding constant (Ki) of each with CAPTISOL was determined. […] The molar ratio of CAPTISOL to Salmeterol xinafoate at saturated solubility was about 3.2 under the test conditions used. Their may be a reduction in the amount of budesonide solubilized by CAPTISOL in the presence of Salmeterol xinafoate; however, clear aqueous liquid solution formulations comprising therapeutically effective amounts of budesonide and Salmeterol xinafoate were prepared.

red blood cells = details: concentrations typically used to solubilize pharmaceutical formulations; cited from earlier work
[3] = Viscosity of SAE-CD solutions (cone and plate viscometer); format: physicochemical; details: 25 C.
Method: The performance of an inhalable solution of the invention in a nebulizer may depend upon the viscosity of the solution in its reservoir, the nebulization solution. Viscosity of the inhalable composition can have an impact on percentage of nebulization composition emitted from a nebulizer, output rate of nebulized corticosteroid and droplet size distribution.
The viscosity of aqueous solutions containing SAE-CD were measured using a cone and plate viscometer.
A Brookfield Programmable DV-III+ Rheometer, CPE-40 cone and CPE 40Y plate (Brookfield Engineering Laboratories, Middleboro, Mass.) was used to make measurements on 0.5 ml samples at 1, 2, 3, 5 and 10 rpm. Samples were sheered for approximately 5 revolutions prior to each measurement. This allowed accurate rheological characterization of the samples. The temperature of all samples was equilibrated to 25±1 degree centigrade using a double wall viscometer cone supplied with water from an electronically controlled thermostatic circulating water bath (Model, 8001, Fisher Scientific, Pittsburgh, Pa.). The viscometer was calibrated using 5 and 50 centipoise using silicon oil calibration standards. Viscosity measurements were made at 5 or more rotation speeds to look for sheer thinning behavior (viscosities that decrease as the rate of sheer increases). Higher rotation speeds result in increased rates of sheer.

[4] = Density of CAPTISOL solutions (pycnometer); format: physicochemical; details: 25° C.
Method: The concentration of SAE-CD in solution can be expressed on a weight to weight or weight to volume basis; however, these two units are interconvertible. When a known weight of cyclodextrin is dissolved in a known weight of water, the % w/w cyclodextrin concentration is determined by dividing the cyclodextrin weight in grams by the total weight (cyclodextrin+water weight) in like units and multiplying by 100. When a known weight of cyclodextrin is dissolved to a known total volume, the % w/v cyclodextrin concentration is determined by dividing the cyclodextrin weight in grams by the total volume in milliliters and multiplying by 100. The correlation between the two cyclodextrin concentration percentages was experimentally determined by preparing various % w/w cyclodextrin solutions and measuring the density of each with a pycnometer at 25° C.

In the case of `CCNC(=O)[C@@H]1CCCN1C(=O)[C@H](CCCNC(=N)N)NC(=O)[C@H](CC(C)C)NC(=O)[C@@H](CC(C)C)NC(=O)[C@H](Cc1ccc(O)cc1)NC(=O)[C@H](CO)NC(=O)[C@H](Cc1c[nH]c2ccccc12)NC(=O)[C@H](Cc1c[nH]cn1)NC(=O)[C@@H]1CCC(=O)N1` [leuprolide acetate], the mean bioavailability [1] is listed as 6.6%.
In the case of `OCc1cc(C(O)CNCCCCCCOCCCCc2ccccc2)ccc1O` (centres unmarked) [Salmeterol xinafoate], the “approximate equilibrium binding constant (Ki) with CAPTISOL” value [2] is reported as “approximately 3,500” and the “molar ratio of CAPTISOL to drug at saturated solubility” value [2] is reported as “about 3.2”.
In the case of “Sulfobutyl Ether-β-Cyclodextrin [Captisol]”, the hemolytic behavior (red blood cells) is given as “essentially no hemolytic behavior”, the Viscosity ([3]; Captisol 8.5 % w/w) is given as 1.75 Cp and the Viscosity ([3]; Captisol 29.8 % w/w) is given as 5.91 Cp. For the same molecule, the Viscosity ([3]; Captisol 39.7 % w/w) was 17.0 Cp, the Viscosity ([3]; Captisol 49.4 % w/w) was 51.9 Cp and the Viscosity ([3]; Captisol 59.4 % w/w) was 527.0 Cp. For the same molecule, the Viscosity ([3]; Captisol […] w/w) was 2.78 Cp, the Density ([4]; Captisol 8.5 % w/w) was 1.041 g/mL and the Density ([4]; Captisol 29.8 % w/w) was 1.149 g/mL. It also gave a Density ([4]; Captisol 39.7 % w/w) of 1.202 g/mL, a Density ([4]; Captisol 49.4 % w/w) of 1.259 g/mL and a Density ([4]; Captisol 59.4 % w/w) of 1.320 g/mL. For the same molecule, the Density ([4]; Captisol […] w/w) was 1.095 g/mL.
For `CCCC1O[C@@H]2C[C@H]3[C@@H]4CCC5=CC(=O)C=C[C@]5(C)[C@H]4[C@@H](O)C[C@]3(C)[C@]2(C(=O)CO)O1` (stereo partly drawn) [Budesonide, (R,S)-11β,16α,17,21-tetrahydroxypregna-1,4-diene-3,20-dione cyclic 16,17-acetal with butyraldehyde], the “approximate equilibrium binding constant (Ki) with CAPTISOL” value [2] was roughly 600.
